In patent US20260023070A1, “OPTOGENETIC ALPHA-SYNUCLEIN AGGREGATION SYSTEM-BASED COMPOUND SCREENING PLATFORM IN PD-hiPSC-mDA NEURONS” (The Johns Hopkins University, priority 2022, published 2026):

Columns and labels:
[1] = test system: opto-α-syn SH-SY5Y cells; test: OASIS-based high-content imaging assay of light-induced α-syn aggregation (5G4 staining, Aggregates Induction Score); format: cell-based, human; settings: for AIS compared to blue light-illuminated DMSO control: two independent experiments, 24-well culture conditions, blue light stimulation; for AIS, aggregates induction score: validation of 19 hits, 24-well plates, blue light, AIS normalized to positive control (blue light, DMSO) set as 1.0
Protocol: The opto-α-syn expressing SH-SY5Y cells were seeded in 96-well black flat bottom imaging microplates (Falcon) at 30,000 cells per well in 100 μL of complete media using E1-ClipTip electronic multichannel pipette (Thermo Fisher Scientific) and incubated in 37° C. and 5% CO2 humidified incubator. After 18 h of incubation, 10 μL of 10 μM compounds (column 2 to 10) or 1% DMSO (column 1 and 12) were added (final concentration of DMSO is 0.1%). In order to induce aggregations, the plates were illuminated with blue light (26 μW/mm^2) on customized blue light illumination 96-well plates for 2 h. Afterward, cells were fixed in 4% paraformaldehyde (PFA) for 15 min and stained with the aggregated-α-syn antibody (5G4) after permeabilization with 0.1% Triton X-100/0.5% BSA/PBS solution. […] To analyze images, the automated aggregation quantification algorithm and cell counting algorithm in the form of macro are developed using ImageJ software. Briefly, the algorithm includes the inversion, subtracting background, threshold selection, analyzing particles with ranged size and circularity. The Aggregates Induction Score (AIS) is calculated using, the following equation: […]
where N^agg is the number of aggregates, ^Ntotal is the number of total cells. The AIS in each well is normalized by the AIS in positive control which is set as 1.0. […] The hit selection strategy was based on calculated AIS; hits were defined as AIS<0.5. […] Two independent experiments were performed, and total 10 images per well are analyzed to calculate AIS.
As illustrated in FIGS. 8A-8E, high-content imaging screening with the optogenetic α-syn aggregation system was performed, following the schematic representation of the process of high-content imaging (HCI) screening with optogenetics-assisted method of alpha-synuclein aggregation induction system (OASIS) (FIG. 8A). SH-SY5Y cells expressing opto-α-syn were in dark or exposed to blue light (26 μW/mm^2 at 470 nm, 1 Hz, 1 s) for 1.5 h under 96-well plate culture conditions, and then immunostained with 5G4 antibody. The equation of Aggregates Induction Score (AIS) (FIG. 8B) was used for the calculation of Z′-factor for HCI screening with OASIS (FIG. 8C). […] Arrow represents the degree of separation (Z′-factor) between light-illuminated and darkness controls. […] Detailed information of numbered compounds was described in Table 1. One-way ANOVA followed by Dunnett's post hoc test (n=10 or 20, 5 or 10 images each from two independent experiments). *P<0.05, **P<0.01, ***P<0.001, ****P<0.0001.
As illustrated in FIGS. 9A-9B, high-content imaging screening with the optogenetic α-syn aggregation system was performed. The measurement of 5G4^+ aggregates in opto-mock or opto-α-syn SH-SY5Y neuronal cells was assessed. Cells were in dark or exposed to blue light (26 μW/mm^2 at 470 nm, 1 Hz, 1 s) for 1.5 h, and then immunostained with 5G4 antibody. […] Images were converted to grayscale, and a threshold was adjusted to exclude the background based on the size of particles. Once the value of threshold was determined, all the images were applied with the fixed threshold, and then the number of aggregates was measured (FIG. 9A). Number of DAPI from the original images were counted (FIG. 9B). Representative images of opto-α-syn SH-SY5Y neuronal cells treated with 19 compounds under 24-well plate culture conditions were imaged. SH-SY5Y cells expressing opto-α-syn were in dark or exposed to blue light (34 μW/mm^2 at 470 nm, 1 Hz, 0.5 s) for 1.5 h, and then immunostained with 5G4 antibody.

[2] = test system: mouse primary neurons treated with α-syn PFF; test: α-syn PFF model in mouse primary neurons (TX-insoluble pathologic α-syn); format: cell-based
Protocol: To validate the effects of these two compounds on the OASIS-independent model, α-syn PFF were treated with mouse primary neurons and non-OASIS-human PD hiPSC-derived mDA neurons with CDC 021 and BAG 956.

[3] = test system: opto-α-syn PD hiPSC-derived mDA neurons; test: Light-induced α-syn aggregation and neurotoxicity in opto-α-syn PD hiPSC-derived mDA neurons; format: cell-based, human; settings: blue light 7 days; compared to DMSO control; significant at 1 and 10 nM CDC, 10 and 100 nM BAG
Protocol: Whether these potential hit compounds can inhibit α-syn aggregation and rescue aggregation-induced neuronal toxicity was tested on PD hiPSC-derived mDA neurons. The top 5 ranked small compounds in FIGURE SE were selected and these compounds to were used to treat opto-α-syn PD hiPSC-derived mDA neurons at three different concentrations (1 nM, 10 nM, 100 nM) with blue light stimulation. […] Overall, the two compounds were finally selected among the potential hit drugs from our novel opto-α-syn neuronal cell model-based primary screening (FIG. 11D), and they considerably rescued neuronal cell death from aggregation-induced TH^+ mDA neuron-selective toxicity in PD-iPSC derived neurons. To identify possible molecules involved in this compound-mediated recovery of TH^+ mDA neurons, RNA-sequencing (RNA-seq) analysis was performed with four different samples (dark condition with DMSO, blue light stimulation with DMSO, blue light stimulation with BAG treatment, and blue light stimulation with CDC treatment). To find BAG- or CDC-responsive genes, differentially expressed genes (DEGs) of DMSO-treated samples upon blue light stimulation were first extracted, and then the DEGs were filtered with criteria of which became non-DEGs in response to CDC or BAG treatment. […]
The effect of 5 selected compounds on opto-α-syn-expressing PD hiPSC-derived mDA neurons was evaluated. […]

[4] = test system: blue light-illuminated opto-α-syn-mDA neurons; test: Autophagy and aggregate clearance in blue light-illuminated opto-α-syn-mDA neurons; format: cell-based, human; settings: additional treatment with BAG 956, blue light-illuminating condition
Protocol: Because autophagy can be activated by the inhibition of PI 3-kinase (PI3K) or the PDK1 pathway, it was tested whether treatment with BAG 956 can induce the autophagic flux to decrease α-syn aggregates in opto-α-syn mDA neurons and MOs.

Row | Structure (SMILES) | AIS, aggregates induction score [1] | other results
1 | Cc1cc(Nc2nc(N[C@@H](C)c3ncc(F)cn3)ncc2Cl)n[nH]1 [AZD 1480] | 0.31 | AIS compared to blue light-illuminated DMSO control [1]: significant decrease
2 | CC(C)c1ccc2oc3nc(N)c(C(=O)O)cc3c(=O)c2c1 [Amlexanox] | 0.53 | 
3 | O=C1NC(=O)c2c1c1c3ccccc3[nH]c1c1[nH]c3ccccc3c21 [Arcyriaflavin A] | 0.37 | AIS compared to blue light-illuminated DMSO control [1]: significant decrease
4 | CC1(C)C(=O)N=C2C1=C(O)C(=O)c1ccccc12 [BVT 948] | 0.36 | AIS compared to blue light-illuminated DMSO control [1]: significant decrease
5 | COc1cc2nc(N3CCC(N4CCCCC4)CC3)nc(NC3CCCCCC3)c2cc1OC.Cl.Cl [C 021 dihydrochloride] | 0.19 | pathologic α-syn in the Triton X-100 (TX)-insoluble fraction [2]: significantly reduced; survival rate of TH+ mDA neurons [3]: significant increase; AIS compared to blue light-illuminated DMSO control [1]: significant decrease
6 | O=C1CCc2cc(OCCCCc3nnnn3C3CCCCC3)ccc2N1 [Cilostazol] | 0.65 | 
7 | CCCCCCCCCCC(C)(C)C(=O)Nc1c(OC)cc(OC)cc1OC [Compound C1976, CI 976] | 0.63 | 
8 | NS(=O)(=O)c1cc2c(cc1Cl)NC(C1CC3C=CC1C3)NS2(=O)=O (stereo not shown) [Cyclothiazide] | 0.68 | 
9 | C[C@@H]1C[C@H]2[C@@H]3CCC4=CC(=O)C=C[C@]4(C)[C@@]3(F)[C@@H](O)C[C@]2(C)[C@@]1(O)C(=O)CO [Dexamethasone] | 0.74 | 
10 | O=C(O)c1ccccc1C(=O)Nc1ccc(-c2ccccc2)cc1 [Kartogenin] | 0.98 | 
11 | COc1c(C)c2c(c(O)c1C/C=C(\C)CCC(=O)OCCN1CCOCC1)C(=O)OC2 [Mycophenolate mofetil] | 0.71 | 
12 | COc1c(C)c2c(c(O)c1C/C=C(\C)CCC(=O)O)C(=O)OC2 [Mycophenolic acid] | 0.57 | 
13 | CCCN(CCC)CCc1ccc(OC)c(OCCc2ccccc2)c1.Cl [NE 100 hydrochloride] | 0.53 | 
14 | CC(=O)c1cc2c(o1)C(=O)c1ccccc1C2=O [Napabucasin] | 0.97 | 
15 | CCOC(=O)c1ccc(N(C)c2csc(-c3ccccc3)n2)cc1 [Neuropathiazol] | 0.73 | 
16 | CN(C)CCc1c[nH]c2ccc(Cn3cncn3)cc12 [Rizatriptan benzoate] | 0.59 | 
17 | CCc1c(C(=O)Nc2cc(S(=O)(=O)N(CC)CC)ccc2O)[nH]c(C)c1C(C)=O [XD 14] | 0.75 | 
18 | CO/C1=C\C(C)=C\[C@@H](C)[C@@H](O)[C@@H](C)C/C(C)=C/C=C/[C@H](OC)[C@@H]([C@@H](C)[C@@H](O)[C@H](C)[C@@]2(O)C[C@@H](O)[C@H](C)[C@@H](C(C)C)O2)OC1=O [bafilomycin A1] |  | BAG 956-mediated level of TH+ mDA neurons [4]: reversed; BAG 956-mediated reduction of 5G4+ α-syn aggregates [4]: reversed
